Measurements reported in ChEMBL document CHEMBL4219252, “Synthesis, antimycobacterial activity and influence on mycobacterial InhA and PknB of 12-membered cyclodepsipeptides” (Bioorg Med Chem, 2018).
In brackets after ≈: the same amount, converted by molar mass.

Columns and labels:
Type in all cases: functional, variant bovis BCG
[1] = system: Mycobacterium tuberculosis; assay: Ratio of MIC for Mycobacterium bovis BCG harboring pATB45::inhA to MIC for Mycobacterium bovis BCG harboring pATB45
[2] = system: Mycobacterium tuberculosis; assay: Antimycobacterial activity against Mycobacterium bovis BCG harboring pATB45::inhA after 48 hrs by resazurin microtiter assay
[3] = system: Mycobacterium tuberculosis; assay: Antimycobacterial activity against wild type Mycobacterium bovis BCG harboring pATB45 after 48 hrs by resazurin microtiter assay
[4] = Mycobacterium tuberculosis, variant bovis BCG, 48 h, read-out: MIC

Compound	Ratio [1]	MIC [2, 4] [µM]	MIC [3, 4] [µM]	MIC [2] [µM]	MIC [3] [µM]
C[C@H]1OC(=O)CCC(Cc2ccccc2)NC(=O)[C@@H](NC(=O)c2ncccc2O)[C@@H](C)OC1=O (some centres not stated)	1	62.5 (≈ 29.3 µg/mL)	62.5 (≈ 29.3 µg/mL)	–	–
C[C@H]1OC(=O)COC(=O)CCC(Cc2ccccc2)NC(=O)[C@H]1NC(=O)OC(C)(C)C (stereo in doubt; form 1)	2	–	–	125 (≈ 54.3 µg/mL)	62.5 (≈ 27.2 µg/mL)
C[C@H]1OC(=O)COC(=O)CCC(Cc2ccccc2)NC(=O)[C@H]1NC(=O)OC(C)(C)C (stereo in doubt; form 2)	1	–	–	7.8 (≈ 3.39 µg/mL)	7.8 (≈ 3.39 µg/mL)
NNC(=O)c1ccncc1 [ISONIAZID]	15.6	12.5 (≈ 1.71 µg/mL)	0.8 (≈ 0.11 µg/mL)	–	–
